In patent US6403586B1, “Pyridazine derivatives and drugs containing the same as the active ingredient” (Kowa Co., Ltd., priority 1998, dated 2002):

SMILES	melting point
COC(=O)c1cc(-c2ccc(SC)cc2)nn(CC2CC2)c1=O [Example 20, 2-Cyclopropylmethyl-4-methoxycarbonyl-6-[4-(methylthio)phenyl]-2H-pyridazin-3-one]	100.2 to 101.8 °C
COc1ccc(-c2cc(NC(C)=O)c(=O)n(CC=Cc3ccc(Cl)cc3)n2)cc1 [Example 113, 4-acetylamino-2-(4-chlorocinnamyl)-6-(4-methoxyphenyl)-2H-pyridazin-3-one]	158.7 to 161.9 °C
CNc1cc(-c2ccc(OC)cc2)nn(CC=Cc2ccc(Cl)cc2)c1=O [Example 117, 2-(4-chlorocinnamyl)-6-(4-methoxyphenyl)-4-methylamino-2H-pyridazin-3-one]	148.4 to 149.2 °C
CNC(=O)c1cc(-c2ccc(OC)cc2)nn(CC2CCCC2)c1=O [Example 72, 2-Cyclopentylmethyl-6-(4-methoxyphenyl)-4-methylcarbamoyl-2H-pyridazin-3-one]	107.4 to 107.8 °C
COc1ccc(-c2cc(C(N)=O)c(=O)n(CC=Cc3ccc(Cl)cc3)n2)cc1 [Example 42, 4-Carbamoyl-2-(4-chlorocinnamyl)-6-(4-methoxyphenyl)-2H-pyridazin-3-one]	195.1 to 195.5 °C
CNC(=O)c1cc(-c2ccc(OC)cc2)nn(CC(=O)NCCO)c1=O [Example 59, 2-(2-Hydroxyethyl)carbamoylmethyl-6-(4-methoxyphenyl)-4-methylcarbamoyl-2H-pyridazin-3-one]	240.2 to 241.2 °C
CNC(=O)c1cc(-c2ccc(OC)cc2)nn(C(C)C)c1=O [Example 52, 2-Isopropyl-6-(4-methoxyphenyl)-4-methylcarbamoyl-2H-pyridazin-3-one]	154 to 154.3 °C
COc1ccc(-c2cc(C(N)=O)c(=O)n(CC3CC3)n2)cc1 [Example 39, 4-Carbamoyl-2-cyclopropylmethyl-6-(4-methoxyphenyl)-2H-pyridazin-3-one]	182.2 to 183.3 °C
COc1ccc(-c2cc(C(=O)Nc3ccccc3)c(=O)n(CC3CC3)n2)cc1 [Example 71, 2-Cyclopropylmethyl-6-(4-methoxyphenyl)-4-phenylcarbamoyl-2H-pyridazin-3-one]	162.8 to 163.3 °C
COc1ccc(-c2cc(NC(=O)NC(C)C)c(=O)n(CC3CC3)n2)cc1 [Example 125, 2-cyclopropylmethyl-4-(3-isopropylureido)-6-(4-methoxyphenyl)-2H-pyridazin-3-one]	195.8 to 197 °C
CCOC(=O)c1cc(-c2ccc(OC)cc2)nn(Cc2ccc(Cl)cc2Cl)c1=O [Example 24, 2-(2,4-Dichlorobenzyl)-4-ethoxycarbonyl-6-(4-methoxyphenyl)-2H-pyridazin-3-one]	135.7 to 136.3 °C
CNC(=O)c1cc(-c2ccc(OC)cc2)nn(CC(=O)NCc2ccccn2)c1=O [Example 58, 6-(4-Methoxyphenyl)-4-methylcarbamoyl-2-(2-pyridylmethyl)carbamoylmethyl-2H-pyridazin-3-one]	194.7 to 195.8 °C
COc1ccc(-c2cc(C(N)=O)c(=O)n(CC3CCCC3)n2)cc1 [Example 40, 4-Carbamoyl-2-cyclopentylmethyl-6-(4-methoxyphenyl)-2H-pyridazin-3-one]	182.2 to 183.3 °C
CCCNC(=O)c1cc(-c2ccc(OC)cc2)nn(CC2CC2)c1=O [Example 67, 2-Cyclopropylmethyl-6-(4-methoxyphenyl)-4-n-propylcarbamoyl-2H-pyridazin-3-one]	101.3 to 101.6 °C
COC(=O)c1cc(-c2ccc(SC)cc2)nn(CC=Cc2ccc(Cl)cc2)c1=O [Example 35, 2-(4-Chlorocinnamyl)-4-methoxycarbonyl-6-[4-(methylthio)phenyl]-2H-pyridazin-3-one]	123.3 to 126.2 °C
COc1ccc(-c2cc(C(=O)Nc3ccncc3)c(=O)n(CC3CC3)n2)cc1 [Example 70, 2-Cyclopropylmethyl-6-(4-methoxyphenyl)-4-(4-pyridyl)carbamoyl-2H-pyridazin-3-one]	181.3 to 181.5 °C
COc1ccc(-c2cc(N)c(=O)n(Cc3ccccc3)n2)cc1 [Example 121, 4-amino-2-benzyl-6-(4-methoxyphenyl)-2H-pyridazin-3-one]	115.1 to 115.6 °C
COc1ccc(-c2cc(C(=O)O)c(=O)n(CC=C(C)C)n2)cc1 [Example 92, 4-carboxy-6-(4-methoxyphenyl)-2-(3-methyl-2-butenyl)-2H-pyridazin-3-one]	153.5 to 156.6 °C
COc1ccc(-c2cc(C(=O)NCc3ccccc3)c(=O)n(CC3CC3)n2)cc1 [Example 68, 4-Benzylcarbamoyl-2-cyclopropylmethyl-6-(4-methoxyphenyl)-2H-pyridazin-3-one]	119.7 to 120.1 °C
COc1ccc(-c2cc(C(=O)O)c(=O)n(CC=Cc3ccc(Cl)cc3)n2)cc1 [Example 86, 4-Carboxy-2-(4-chlorocinnamyl)-6-(4-methoxyphenyl)-2H-pyridazin-3-one]	222.6 to 224 °C (dec.)
CNC(=O)c1cc(-c2ccc(OC)c(OC)c2)nn(CC(C)C)c1=O [Example 53, 6-(3,4-Dimethoxyphenyl)-2-isobutyl-4-methylcarbamoyl-2H-pyridazin-3-one]	111.4 to 112.6 °C

SMILES	melting point
CNC(=O)c1cc(-c2ccc(OC)cc2)nn(CC=Cc2ccc(Cl)cc2)c1=O [Example 85, 2-(4-Chlorocinnamyl)-6-(4-methoxyphenyl)-4-methylcarbamoyl-2H-pyridazin-3-one]	184.2 to 185.4 °C
COc1ccc(-c2cc(N)c(=O)n(CC3CC3)n2)cc1 [Example 124, 4-amino-2-cyclopropylmethyl-6-(4-methoxyphenyl)-2H-pyridazin-3-one]	110.8 to 111.3 °C
CCOC(=O)Nc1cc(-c2ccc(OC)cc2)nn(Cc2ccccc2)c1=O [Example 97, 2-benzyl-4-ethoxycarbonylamino-6-(4-methoxyphenyl)-2H-pyridazin-3-one]	152.1 to 162.5 °C
CCCCOC(=O)Nc1cc(-c2ccc(OC)cc2)nn(CC=Cc2ccc(Cl)cc2)c1=O [Example 89, 4-n-butoxycarbonylamino-2-(4-chlorocinnamyl)-6-(4-methoxyphenyl)-2H-pyridazin-3-one]	150.2 to 150.9 °C
COc1ccc(-c2cc(NC(=O)NC(C)C)c(=O)n(Cc3ccccc3)n2)cc1 [Example 123, 2-benzyl-4-(3-isopropylureido)-6-(4-methoxyphenyl)-2H-pyridazin-3-one]	200.2 to 201 °C
COc1ccc(-c2cc(C(=O)NCc3ccccn3)c(=O)n(CC3CCCC3)n2)cc1 [Example 76, 2-Cyclopentylmethyl-6-(4-methoxyphenyl)-4-(2-pyridylmethyl)carbamoyl-2H-pyridazin-3-one]	126.6 to 127.5 °C
CCCNC(=O)c1cc(-c2ccc(OC)cc2)nn(CC2CCCC2)c1=O [Example 74, 2-Cyclopentylmethyl-6-(4-methoxyphenyl)-4-n-propylcarbamoyl-2H-pyridazin-3-one]	109.9 to 110.2 °C
COC(=O)c1cc(-c2ccc(OC)c(OC)c2)nn(CC=Cc2ccc(Cl)cc2)c1=O [Example 32, 2-(4-Chlorocinnamyl)-6-(3,4-dimethoxyphenyl)-4-methoxycarbonyl-2H-pyridazin-3-one]	117.5 to 118.7 °C
CNC(=O)Cn1nc(-c2ccc(OC)cc2)cc(C(=O)NC)c1=O [Example 47, 6-(4-Methoxyphenyl)-4-methylcarbamoyl-2-methylcarbamoylmethyl-2H-pyridazin-3-one]	250.1 to 250.8 °C
COc1ccc(-c2cc(C(=O)NCc3ccccc3)c(=O)n(C)n2)cc1 [Example 77, 4-Benzylcarbamoyl-6-(4-methoxyphenyl)-2-methyl-2H-pyridazin-3-one]	144.8 to 145.8 °C
CNC(=O)c1cc(-c2ccc(OC)cc2)nn(CCO)c1=O [Example 49, 2-(2-Hydroxyethyl)-6-(4-methoxyphenyl)-4-methylcarbamoyl-2H-pyridazin-3-one]	160.3 to 160.6 °C
COC(=O)c1cc(-c2ccc(OC)c(OC)c2)nn(CC2CC2)c1=O [Example 17, 2-Cyclopropylmethyl-6-(3,4-dimethoxyphenyl)-4-methoxycarbonyl-2H-pyridazin-3-one]	136.5 to 137.3 °C
CCOC(=O)c1cc(-c2ccc(OC)cc2)nn(CC(C)C)c1=O [Example 10, 4-Ethoxycarbonyl-2-isobutyl-6-(4-methoxyphenyl)-2H-pyridazin-3-one]	83 to 83.3 °C
CCOC(=O)c1cc(-c2ccc(OC)cc2)nn(CC=Cc2ccc(Cl)cc2)c1=O [Example 31, 2-(4-Chlorocinnamyl)-4-ethoxycarbonyl-6-(4-methoxyphenyl)-2H-pyridazin-3-one]	127 to 127.9 °C
COc1ccc(-c2cc(NS(C)(=O)=O)c(=O)n(CC3CC3)n2)cc1 [Example 126, 2-cyclopropylmethyl-4-methanesulfonylamino-6-(4-methoxyphenyl)-2H-pyridazin-3-one]	203.3 to 203.9 °C
CCC(=O)Nc1cc(-c2ccc(OC)cc2)nn(CC=Cc2ccc(Cl)cc2)c1=O [Example 114, 2-(4-chlorocinnamyl)-6-(4-methoxy-phenyl)-4-propionylamino-2H-pyridazin-3-one]	147.7 to 148.6 °C
COc1ccc(-c2cc(NC(=O)OCc3ccccc3)c(=O)n(CC=Cc3ccc(Cl)cc3)n2)cc1 [Example 90, 4-benzyloxycarbonylamino-2-(4-chlorocinnamyl)-6-(4-methoxyphenyl)-2H-pyridazin-3-one]	190.5 to 191.7 °C
CNC(=O)c1cc(-c2ccc(OC)cc2)nn(CC#N)c1=O [Example 46, 2-Cyanomethyl-6-(4-methoxyphenyl)-4-methylcarbamoyl-2H-pyridazin-3-one]	153.4 to 154.9 °C
CCOC(=O)c1cc(-c2ccc(OC)cc2)nn(CC2CC2)c1=O [Example 16, 2-Cyclopropylmethyl-4-ethoxycarbonyl-6-(4-methoxyphenyl)-2H-pyridazin-3-one]	80.1 to 80.9 °C
CNC(=S)c1cc(-c2ccc(OC)c(F)c2)nn(CC2CC2)c1=O [Example 129, 2-cyclopropylmethyl-6-(3-fluoro-4-methoxyphenyl)-4-methylthiocarbamoyl-2H-pyridazin-3-one]	178 to 178.5 °C
